# Experimental data published in US20230404969A1, “COMPOSITIONS AND METHOD FOR EFFECTIVE MANAGEMENT OF PERITONITIS” (priority 2022, published 2023).
# Where “and” joins values, the source holds several entries; their conditions need not be identical. Equal entries are not always repeated.
# How the values were obtained:
# IL-1β = assay: Extracellular in vivo IL-1β estimation in serum from treated mice after LPS injection (ELISA); settings: 1 mg/kg p.o for 6 days, serum 90 mins after LPS injection, ↑ upregulation
# Protocol: BALM male mice aged 6-8 weeks were maintained at 22±2° C. under 12/12 h light dark cycle. Mice received oral treatment of test drugs at graded doses (w/v) for 6 days, followed by intravenous injection of 1 mg/kg (Brieva et al. Immunoferon, a glycoconjugate of natural origin, inhibits LPS-induced TNF-α production and inflammatory responses. International Immunopharmacology (2001) 1, 1979-1987). Six mice were employed in each group and experiments were performed in triplicates. Blood was collected from retro-orbital plexus of the experimental animals and serum was separated. TNF-α, IL-1β production was evaluated by a commercial ELISA kit in serum from treated mice, 90 mins after LPS injection.
# [1] = tested on: polymorphonuclear leukocytes, macrophages, lymphocytes; assay: Zymosan A induced peritonitis, acute study: intraperitoneal cellular influx; format: in vivo, BALB/c male mice; settings: 2 mg/kg p.o (of 0.5, 1, 2, 4 mg/kg); 4, 12, 24 and 48 hrs after Zymosan A i.p.
# Protocol: Peritoneal inflammation was induced according to Doherty et al. in BALB/c male mice aged 6-8 weeks. Zymosan A (Sigma Chemical) was prepared freshly (2 mg/ml) in sterile, 0.9% w/v saline, and 0.5 ml was injected i.p. Zymosan A is a cell wall component of fungus, caused proliferative peritonitis with severe accumulation of inflammatory cells. At the selected time points 4, 12, 24 and 48 hrs, the peritoneal cavity was lavaged with 1.5 ml saline, and after a 30-s gentle manual massage, 0.5 ml exudate was retrieved, centrifuged at 3000 g for 3 min. 0.5 ml exudate was collected and used freshly for cell counts.
# MCP-1 = assay: Cytometric Bead Array of peritoneal fluid, chronic zymosan peritonitis: MCP-1; format: in vivo, mouse; settings: 2 mg/kg, vs Zymosan control
# Protocol: (§1) Peritoneal inflammation was induced by Zymosan A (Sigma Chemical) (Masashi et al. Zymosan, but Not Lipopolysaccharide, Triggers Severe and Progressive Peritoneal Injury Accompanied by complement Activation in a Rat Peritonitis Model) was prepared freshly in sterile, 0.9% w/v saline, and 0.5 ml was injected i.p. from day 0 to Day 5. The lymphocyte population in the peripheral blood was determined with a flow cytometer. Cells were phenotyped by flow cytometry with the following primary antibodies: CD4 (FITC) and CD8 (PE). Cells were gated broadly on all live lymphocyte cells, with only debris and multiple cell clusters being excluded. Analysis of mean fluorescence intensity was done and percentage cell population was evaluated. […]
# (§2) The Cytometric Bead Array (Mouse Inflammation kit) was used to study cytokines in peritoneal fluid. […] Briefly, a mixture of 6 capture bead populations (50 μl) with distinct fluorescence intensities (detected in FL3) coated with antibodies specific for the above cytokines was mixed with each sample/standard (50 μl). […] Following acquisition of data by two colour cytometric analysis, the sample results were analysed using CBA software (BD Biosciences). […] Individual cytokine concentration ratios were indicated by their fluorescent intensities and was determined by interpolation from the corresponding standard curve.
# IFN-γ = assay: Cytometric Bead Array of peritoneal fluid, chronic zymosan peritonitis: IFN-γ; format: in vivo, mouse; settings: 2 mg/kg, vs Zymosan control
# Protocol: as §1, §2
# TNF-α = assay: Cytometric Bead Array of peritoneal fluid, chronic zymosan peritonitis: TNF-α; format: in vivo, mouse; settings: 2 mg/kg, vs Zymosan control
# Protocol: as §1, §2
# IL-12p70 = assay: Cytometric Bead Array of peritoneal fluid, chronic zymosan peritonitis: IL-12; format: in vivo, mouse; settings: 2 mg/kg, vs Zymosan control
# Protocol: as §1, §2
# [2] = tested on: Proteus mirabilis (Gram-negative); assay: Bacterial translocation from the gut into organs: P. mirabilis; format: in vivo; settings: Withanone 2 mg/kg; positive/6 mice
# Protocol: (§3) Peritoneal inflammation was induced by Zymosan A (Sigma Chemical) (Masashi et al. Zymosan, but Not Lipopolysaccharide, Triggers Severe and Progressive Peritoneal Injury Accompanied by complement Activation in a Rat Peritonitis Model) was prepared freshly in sterile, 0.9% w/v saline, and 0.5 ml was injected i.p. from day 0 to Day 5. The lymphocyte population in the peripheral blood was determined with a flow cytometer. Cells were phenotyped by flow cytometry with the following primary antibodies: CD4 (FITC) and CD8 (PE). Cells were gated broadly on all live lymphocyte cells, with only debris and multiple cell clusters being excluded. Analysis of mean fluorescence intensity was done and percentage cell population was evaluated. The test drugs were administered for 30 days after the induction of peritonitis. On 36th day the peritoneal cavity was lavaged with 1.5 ml saline, and after a 30-s gentle manual massage, 0.5 ml exudate was retrieved, centrifuged at 3000 g for 3 min, and frozen at […] prior to cytokine and chemotactic-factor assessment.
# (§4) Intestine serves as a barrier in preventing gut bacteria and/or endotoxin from spreading to organs and tissues. It is also known that bacterial translocation occurs in critically ill or immunocompromised patients, and the physical disruption of mucosal barrier in vivo rodent models seem to be a key factor Tor translocation (Deitch et al. Effect of hemorrhagic shock on bacterial translocation, intestinal morphology, and intestinal permeability in conventional and antibiotic-decontaminated rats; Critical Care Medicine; 1990 18(5)). Bacterial translocation from the gut into the peritoneal cavity and organs was analyzed. The mesenteric lymph nodes, liver, and spleen of mice, study group of 30, were removed using sterile instruments. The organs were then homogenized in 1 ml of sterile cooked meat broth and 50 μl of organ homogenate was spread on blood agar plates to detect aerobic bacteria and Eosin Methylene blue agar plates to detect specially for E. coli. These plates were then incubated at 37° C. for 2 days. […]
# gut bacteria = assay: Bacterial translocation from the gut into organs: total of study group of 30; format: in vivo; settings: Withanone 2 mg/kg; positive/30 mice
# Protocol: as §3, §4
# Myeloperoxidase (MPO) = assay: Myeloperoxidase in peritoneal exudate (ELISA), chronic zymosan peritonitis; format: in vivo, mouse; settings: 2 mg/kg, day 36
# Protocol: as §3
# Circulating toxins can activate neutrophils or stimulate monocytes to release mediators contributing to the development of endotoxic shock. […] The protein concentrations were carried out by means of colorimetric measurement at 450 nm on an ELISA plate reader by interpolation from a standard curve. […]
smiles,measurement,setting,value
CC1=C(C)C(=O)O[C@@H]([C@@H](C)[C@@]2(O)CC[C@H]3[C@@H]4[C@@H]5O[C@@H]5[C@@]5(O)CC=CC(=O)[C@]5(C)[C@H]4CC[C@@]32C)C1 [Withanone],Percentage IL-1β inhibition compared to LPS control,IL-1β,24.5%
same,Inhibition of intraperitoneal cellular influx,[1],maximum effect in inhibiting cellular influx
same,Inhibition of MCP-1,MCP-1,51%
same,Inhibition of IFN-γ,IFN-γ,44%
same,Inhibition of TNF-α,TNF-α,58%
same,Inhibition of IL-12,IL-12p70,53%
same,"Bacterial translocation, Liver, p. mirabilis",[2],0/6
same,"Bacterial translocation, Mesenteric Lymph Nodes, p. mirabilis",[2],0/6
same,"Bacterial translocation, Spleen, p. mirabilis",[2],0/6
same,"Bacterial translocation, Liver, total",gut bacteria,3/30
same,"Bacterial translocation, Mesenteric Lymph Nodes, total",gut bacteria,5 out of 30 and 5/30
same,"Bacterial translocation, Spleen, total",gut bacteria,3/30
same,Decrease of expression levels of MPO compared to the Zymosan control,Myeloperoxidase (MPO),at least 50%
